Reference: PMC4780864, “Family-wide Structural Analysis of Human Numb-Associated Protein Kinases” (Structure(London, England:1993), 2016)

Assays:
Assay in all cases: biochemical
AAK1 = AAK1 (Homo sapiens, UniProt Q2M2I8); set-up: kinase domain; Thermal shift assay (DSF, SYPRO Orange), 2 uM kinase domain, mean delta Tm of triplicates versus DMSO; details: read-out: AAK1
Procedure: (§1) All measurements were performed in triplicate and mean values were reported for all compounds (Table S1). […] However, NAKs are often omitted from selectivity panels, including commercial screens.

GAK = biological target: T1, GAK (Homo sapiens, UniProt O14976); set-up: Thermal shift assay (DSF, SYPRO Orange), 2 uM kinase domain, mean delta Tm of triplicates versus DMSO; details: read-out: GAK
T1 construct: catalytic domain-containing construct
T1 sequence (O14976 1-1311): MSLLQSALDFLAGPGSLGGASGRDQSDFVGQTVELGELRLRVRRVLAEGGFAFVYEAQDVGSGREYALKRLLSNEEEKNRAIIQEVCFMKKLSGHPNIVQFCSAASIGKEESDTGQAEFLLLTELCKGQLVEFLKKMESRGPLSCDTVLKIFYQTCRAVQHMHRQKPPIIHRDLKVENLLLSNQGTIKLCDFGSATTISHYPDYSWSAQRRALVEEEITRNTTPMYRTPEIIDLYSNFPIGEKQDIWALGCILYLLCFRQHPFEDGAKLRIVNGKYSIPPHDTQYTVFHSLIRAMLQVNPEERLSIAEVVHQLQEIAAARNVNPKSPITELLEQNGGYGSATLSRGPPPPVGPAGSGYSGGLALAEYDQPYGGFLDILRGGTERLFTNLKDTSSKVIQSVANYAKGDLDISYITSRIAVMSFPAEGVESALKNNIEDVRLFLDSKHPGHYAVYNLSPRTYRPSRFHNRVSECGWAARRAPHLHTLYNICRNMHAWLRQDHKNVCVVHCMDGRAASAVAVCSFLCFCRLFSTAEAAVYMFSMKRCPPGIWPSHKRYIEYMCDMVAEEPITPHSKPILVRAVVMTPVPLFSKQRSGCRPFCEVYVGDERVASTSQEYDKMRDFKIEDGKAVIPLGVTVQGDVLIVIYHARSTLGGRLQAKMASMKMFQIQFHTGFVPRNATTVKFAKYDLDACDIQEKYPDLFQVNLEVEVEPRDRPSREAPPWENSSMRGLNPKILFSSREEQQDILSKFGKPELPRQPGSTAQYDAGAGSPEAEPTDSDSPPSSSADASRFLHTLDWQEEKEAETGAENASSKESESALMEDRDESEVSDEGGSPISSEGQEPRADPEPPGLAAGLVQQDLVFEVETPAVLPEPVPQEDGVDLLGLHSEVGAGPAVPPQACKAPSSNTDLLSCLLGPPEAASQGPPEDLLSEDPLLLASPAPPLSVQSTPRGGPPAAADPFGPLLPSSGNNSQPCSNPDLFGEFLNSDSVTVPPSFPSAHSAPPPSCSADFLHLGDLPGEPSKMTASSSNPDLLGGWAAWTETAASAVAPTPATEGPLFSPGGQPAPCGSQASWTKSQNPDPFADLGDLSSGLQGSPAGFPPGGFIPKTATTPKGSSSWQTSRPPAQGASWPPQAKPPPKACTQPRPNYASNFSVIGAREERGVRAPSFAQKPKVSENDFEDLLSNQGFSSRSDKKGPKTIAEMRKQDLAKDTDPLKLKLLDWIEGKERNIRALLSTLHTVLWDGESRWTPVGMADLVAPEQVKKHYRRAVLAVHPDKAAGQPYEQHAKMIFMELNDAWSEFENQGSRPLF
Procedure: as §1

BIKE = biological target: T2, BIKE (Homo sapiens, UniProt Q9NSY1); set-up: Thermal shift assay (DSF, SYPRO Orange), 2 uM kinase domain, mean delta Tm of triplicates versus DMSO; details: read-out: BIKE
T2 construct: gene BMP2K; catalytic domain-containing construct
Procedure: as §1

MPSK1 = biological target: T3, MPSK1 (Homo sapiens, UniProt O75716); set-up: Thermal shift assay (DSF, SYPRO Orange), 2 uM kinase domain, mean delta Tm of triplicates versus DMSO; details: read-out: MPSK1
T3 construct: gene STK16; catalytic domain-containing construct
Procedure: as §1

AAK1, sequence (Q2M2I8 27-365 limits assumed): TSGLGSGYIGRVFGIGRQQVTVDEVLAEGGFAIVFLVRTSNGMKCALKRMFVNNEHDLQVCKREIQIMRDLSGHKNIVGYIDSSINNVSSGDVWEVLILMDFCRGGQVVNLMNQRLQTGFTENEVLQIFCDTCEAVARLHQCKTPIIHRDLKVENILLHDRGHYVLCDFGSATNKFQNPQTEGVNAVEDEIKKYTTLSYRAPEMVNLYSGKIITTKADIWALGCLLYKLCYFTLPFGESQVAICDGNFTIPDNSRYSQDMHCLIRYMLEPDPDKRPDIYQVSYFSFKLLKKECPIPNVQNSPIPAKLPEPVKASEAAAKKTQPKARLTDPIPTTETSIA
T3 sequence (O75716 whole entry, the tested form may be a part): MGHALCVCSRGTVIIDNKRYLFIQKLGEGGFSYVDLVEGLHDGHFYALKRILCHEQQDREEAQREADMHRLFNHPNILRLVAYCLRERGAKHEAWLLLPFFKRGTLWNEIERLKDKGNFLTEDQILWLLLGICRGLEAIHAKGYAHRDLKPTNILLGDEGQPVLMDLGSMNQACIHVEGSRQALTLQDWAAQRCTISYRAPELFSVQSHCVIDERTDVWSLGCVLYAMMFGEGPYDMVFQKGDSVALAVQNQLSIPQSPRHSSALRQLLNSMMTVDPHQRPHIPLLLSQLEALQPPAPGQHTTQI
T2 sequence (Q9NSY1 whole entry, the tested form may be a part): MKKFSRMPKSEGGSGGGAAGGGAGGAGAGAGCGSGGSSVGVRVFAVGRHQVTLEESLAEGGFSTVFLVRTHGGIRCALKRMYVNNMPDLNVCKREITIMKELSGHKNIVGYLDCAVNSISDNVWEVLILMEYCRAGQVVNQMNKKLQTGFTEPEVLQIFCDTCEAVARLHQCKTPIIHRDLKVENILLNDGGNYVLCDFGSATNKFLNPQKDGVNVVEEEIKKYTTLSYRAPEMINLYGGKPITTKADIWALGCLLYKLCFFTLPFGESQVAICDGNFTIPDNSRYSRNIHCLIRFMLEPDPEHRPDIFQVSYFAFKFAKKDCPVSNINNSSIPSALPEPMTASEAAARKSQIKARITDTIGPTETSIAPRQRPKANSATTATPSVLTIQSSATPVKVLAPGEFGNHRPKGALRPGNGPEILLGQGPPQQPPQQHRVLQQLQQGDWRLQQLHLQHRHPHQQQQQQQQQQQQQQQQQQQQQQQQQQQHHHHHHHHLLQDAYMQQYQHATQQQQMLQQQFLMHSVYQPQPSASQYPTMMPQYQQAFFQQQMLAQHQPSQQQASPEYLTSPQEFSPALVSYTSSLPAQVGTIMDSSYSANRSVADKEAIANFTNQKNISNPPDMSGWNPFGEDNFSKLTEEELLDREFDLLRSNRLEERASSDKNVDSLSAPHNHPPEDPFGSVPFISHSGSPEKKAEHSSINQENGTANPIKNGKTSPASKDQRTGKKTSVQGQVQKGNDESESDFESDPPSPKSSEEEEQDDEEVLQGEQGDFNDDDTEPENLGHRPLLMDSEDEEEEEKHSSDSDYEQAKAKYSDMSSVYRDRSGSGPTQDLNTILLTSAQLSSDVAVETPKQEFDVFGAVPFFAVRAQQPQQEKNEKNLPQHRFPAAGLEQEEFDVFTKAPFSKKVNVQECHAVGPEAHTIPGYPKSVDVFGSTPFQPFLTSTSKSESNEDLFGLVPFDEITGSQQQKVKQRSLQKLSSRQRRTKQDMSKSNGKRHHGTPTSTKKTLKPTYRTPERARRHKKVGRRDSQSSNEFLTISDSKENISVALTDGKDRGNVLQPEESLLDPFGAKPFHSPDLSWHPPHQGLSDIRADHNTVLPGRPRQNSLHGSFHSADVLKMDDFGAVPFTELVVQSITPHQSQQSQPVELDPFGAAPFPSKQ

| ΔTm at 12.5 µM (AAK1) [°C] | ΔTm at 12.5 µM (GAK) [°C] | ΔTm at 12.5 µM (BIKE) [°C] | ΔTm at 12.5 µM (MPSK1) [°C] | SMILES |
| --- | --- | --- | --- | --- |
| 12.8 | 6.33 | 14.9 | 10.4 | CO[C@@H]1[C@H](N(C)C(=O)c2ccccc2)C[C@H]2O[C@]1(C)n1c3ccccc3c3c4c(c5c6ccccc6n2c5c31)C(=O)NC4 [Midostaurin] |
| 2.56 | 3.33 | 4.47 | 0.81 | C#Cc1cccc(Nc2ncnc3cc4c(cc23)OCCOCCOCCO4)c1 [Icotinib] |
| 1.93 | 0.377 | 1.16 | 0.233 | S=C(NCc1ccc2c(c1)OCO2)N1CCN(c2ncnc3c2oc2ccccc23)CC1 [Amuvatinib] |
| 7.77 | 9.03 | 8.42 | 2.75 | COc1cc(N2CCC(N3CCN(C)CC3)CC2)ccc1Nc1ncc(Cl)c(Nc2ccccc2P(C)(C)=O)n1 [AP26113] |
| 0.24 | -0.487 | 0.245 | 0.443 | O=c1sn(-c2cccc3ccccc23)c(=O)n1Cc1ccccc1 [Tideglusib] |
| 0.0367 | -0.183 | 0.177 | 0.277 | Cn1c(=O)c(F)c(Nc2ccc(I)cc2F)c2c(=O)n(C[C@@H](O)CO)cnc21 [TAK-733] |
| 1.13 | 5.36 | 1.06 | 2.48 | Cc1cn(-c2cc(NC(=O)c3ccc(C)c(Nc4nccc(-c5cccnc5)n4)c3)cc(C(F)(F)F)c2)cn1 [Nilotinib] |
| 1.1 | -0.83 | 0.637 | 1.1 | NC1(c2ccc(-c3nc4ccn5c(=O)[nH]nc5c4cc3-c3ccccc3)cc2)CCC1 [MK-2206] |
| 7.43 | 0.157 | 6.73 | 2.88 | CCn1c(-c2nonc2N)nc2cnc(Oc3cccc(NC(=O)c4ccc(OCCN5CCOCC5)cc4)c3)cc21 [GSK269962] |
| 6.55 | 3.99 | 12 | 5.87 | Cc1[nH]c(/C=C2\C(=O)Nc3ccccc32)c(C)c1CCC(=O)O [Orantinib] |
| 3.27 | -0.0367 | 7 | 0.903 | O=S(=O)(c1cccc2cnccc12)N1CCCNCC1 [Fasudil] |
| 0.79 | -0.86 | 0.493 | 0.74 | CN1CCC(COc2cnc(-c3cccc(Cn4nc(-c5cccc(C#N)c5)ccc4=O)c3)nc2)CC1 [EMD1214063] |
| 0.547 | 1.98 | 0.833 | 0.99 | Cc1ccc(NC(=O)c2ccc(CN3CCN(C)CC3)cc2)cc1Nc1nc(-c2cccnc2)cs1 [Masitinib] |
| 0.21 | -0.497 | 0.24 | 0.847 | C[C@H](Nc1ncnc2nc[nH]c12)c1cc2cccc(Cl)c2c(=O)n1-c1ccccc1 [IPI-145] |
| 3.26 | -0.197 | 5.45 | 6.5 | COc1cc(CCc2cc(NC(=O)c3ccc(N4C[C@@H](C)N[C@@H](C)C4)cc3)n[nH]2)cc(OC)c1 [AZD4547] |
| 4.23 | 3.17 | 2.92 | 1.08 | COc1cc(N2CCC(N3CCN(C)CC3)CC2)ccc1Nc1ncnc(Nc2ccccc2S(=O)(=O)C(C)C)n1 [ASP3026] |
| 1.25 | 1.58 | 4.41 | 0.99 | CCn1c(C(=O)N(C2CC2)C2CC2)cc2c3c(ncn3C)c(Nc3cc(C)n(C)n3)nc21 [BMS-911543] |

| ΔTm at 12.5 µM (AAK1) [°C] | ΔTm at 12.5 µM (GAK) [°C] | ΔTm at 12.5 µM (BIKE) [°C] | ΔTm at 12.5 µM (MPSK1) [°C] | SMILES |
| --- | --- | --- | --- | --- |
| 4.81 | 5.02 | 9.5 | 13.9 | CN(c1ccccc1CNc1nc(Nc2ccc3c(c2)CC(=O)N3)ncc1C(F)(F)F)S(C)(=O)=O [PF 431396] |
| 0.43 | 0.0333 | 0.54 | 0.333 | CC(C)(C)c1cc(NC(=O)Nc2ccc(-c3cn4c(n3)sc3cc(OCCN5CCOCC5)ccc34)cc2)no1 [Quizartinib] |
| 0.483 | -0.337 | 2.91 | 5.21 | C[C@@]1(C(=O)Nc2ccc(F)nc2)CCCN1c1nc(Nc2cc(C3CC3)n[nH]2)c2cccn2n1 [BMS-754807] |
| 3.15 | 6.98 | 3.87 | 1.4 | COc1cc2nccc(Oc3ccc(NC(=O)Nc4cc(C)on4)c(Cl)c3)c2cc1OC [Tivozanib] |
| 0.31 | 7.95 | 4.59 | 0.66 | CN1CCN(CCOc2cc(OC3CCOCC3)c3c(Nc4c(Cl)ccc5c4OCO5)ncnc3c2)CC1 [Saracatinib] |
| 1.68 | 6.13 | 1.04 | 1.83 | Nc1nccc(-c2c(-c3ccc(F)cc3)ncn2C2CCCCC2)n1 [PF-670462] |
| 4.38 | 2.41 | 3.88 | 0.743 | Cc1nc(NC(=O)N2CCC[C@H]2C(N)=O)sc1-c1ccnc(C(C)(C)C(F)(F)F)c1 [BYL719] |
| 6.85 | 0.75 | 12.4 | 3.09 | CNC(=O)c1ccccc1Sc1ccc2c(/C=C/c3ccccn3)n[nH]c2c1 [Axitinib] |
| 1.86 | 1.31 | 1.46 | 1.55 | CN1CC[C@H](c2c(O)cc(O)c3c(=O)cc(-c4ccccc4Cl)oc23)[C@H](O)C1 [Alvocidib] |
| 4.05 | 3.33 | 5.45 | 6.45 | COc1ncc(-c2ccc3nccc(-c4ccnnc4)c3c2)cc1NS(=O)(=O)c1ccc(F)cc1F [GSK2126458] |
| 0.437 | -0.243 | 0.45 | 1.04 | CCc1cncnc1N1CCN(Cc2nc3ccc(C(F)(F)F)cc3[nH]2)CC1 [PF-04708671] |
| 0.367 | -0.66 | 0.423 | 0.827 | CC(=O)Nc1cccc(-n2c(=O)n(C3CC3)c(=O)c3c(Nc4ccc(I)cc4F)n(C)c(=O)c(C)c32)c1 [Trametinib] |
| 0.29 | -0.237 | 0.78 | 2.32 | COc1cc(Nc2ncc3c(n2)-c2ccc(Cl)cc2C(c2c(F)cccc2OC)=NC3)ccc1C(=O)O [Alisertib] |
| 0.0667 | 0.577 | 0.41 | 1.64 | CC(C)n1nc(-c2ccc3oc(N)nc3c2)c2c(N)ncnc21 [INK128] |
| 0.383 | 0.02 | 0.633 | 1.24 | FC(F)c1nc2ccccc2n1-c1nc(N2CCOCC2)nc(N2CCOCC2)n1 [ZSTK474] |
| 2.62 | 2.18 | 4.37 | 0.293 | Cc1c(NC(=O)OC[C@@H]2COCCN2)cn2ncnc(Nc3ccc4c(cnn4Cc4cccc(F)c4)c3)c12 [BMS-599626] |
| 0.19 | -0.48 | 0.203 | 0.583 | COc1cc(OC)c(/C=C/S(=O)(=O)Cc2ccc(OC)c(NCC(=O)O)c2)c(OC)c1 [Rigosertib] |
